Results published in ChEMBL document CHEMBL1201862, “PubChem BioAssay data set” (2004).
Active and inactive are the calls of the source.

Legend:
[1] = cAMP pathway inhibition in counterscreen cell line – TR-FRET cAMP detection, counter-screen for MC4R biased antagonist project, dose response (AID 602305); assay type: functional, cell-based;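 also: U2OS cells stimulated with forskolin near its EC80 as the cAMP inducer; potency is for inhibition of forskolin-stimulated cAMP signaling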
[2] = target: Heat shock protein HSP 90-alpha (Homo sapiens, UniProt P07900); assay type: functional, organism-based
[3] = loss of viability in HepG2 cells – cell-based, CellTiter-Glo, cherry-picked, cytotoxicity control for Shn3 inhibitor project, dose response (AID 624134); assay type: functional
[4] = non-specific 3'UTR reporter inhibition in Clone20-Shn3RL – cell-based, Renilla luciferase, cherry-picked, counter-screen for Shn3 inhibitor project, dose response (AID 624133); assay type: functional
Vero = assay: cells; assay type: functional; conditions: Chlorocebus sabaeus
Melanocortin receptor 4 = Melanocortin receptor 4 (Homo sapiens, UniProt P32245); assay: inhibitors of MC4R cAMP signaling – cell-based, TR-FRET, biased antagonists, dose response (AID 602298); assay type: functional;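 also: antagonist potency against agonist-stimulated cAMP production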
Chain of Melanocortin receptor 4 (P32245 whole entry): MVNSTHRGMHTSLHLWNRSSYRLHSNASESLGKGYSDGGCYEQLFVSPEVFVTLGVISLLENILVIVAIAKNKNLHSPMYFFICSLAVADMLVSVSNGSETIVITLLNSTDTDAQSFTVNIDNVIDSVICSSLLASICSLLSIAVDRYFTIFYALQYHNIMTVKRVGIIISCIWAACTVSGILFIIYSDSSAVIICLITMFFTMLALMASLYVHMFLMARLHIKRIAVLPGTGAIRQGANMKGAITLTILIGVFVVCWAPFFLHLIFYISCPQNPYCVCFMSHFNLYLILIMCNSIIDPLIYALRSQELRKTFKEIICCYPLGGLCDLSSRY

[5] = reduction of Shn3 3'UTR-driven luciferase in osteoblasts – cell-based, Clone20 osteoblasts, firefly luciferase, cherry-picked, dose response (AID 624132); assay type: functional;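 also: firefly luciferase luminescence from reporter carrying the Shn3 3'UTR in osteoblasts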
[6] = microbe, parasite or virus in culture; assay type: functional; conditions: Mycobacterium tuberculosis
[7] = Fluorescence-based cell-based high throughput dose response assay for inhibitors of the interaction of nucleotide-binding oligomerization domain containing 2 (NOD2) and the receptor-interacting serine-threonine kinase 2 (RIPK2).; assay type: functional; conditions: Homo sapiens
[8] = target: Neurotensin receptor type 1 (Homo sapiens, UniProt P30989); assay type: functional;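 also: Image-based confirmatory dose-response assay measuring agonist activity at NTR1; NTR1-expressing U2OS osteosarcoma cells imaged for beta-arrestin GFP spot formation; agonist potency where compounds increase beta-arrestin recruitment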
Chain of Neurotensin receptor type 1 (P30989 whole entry): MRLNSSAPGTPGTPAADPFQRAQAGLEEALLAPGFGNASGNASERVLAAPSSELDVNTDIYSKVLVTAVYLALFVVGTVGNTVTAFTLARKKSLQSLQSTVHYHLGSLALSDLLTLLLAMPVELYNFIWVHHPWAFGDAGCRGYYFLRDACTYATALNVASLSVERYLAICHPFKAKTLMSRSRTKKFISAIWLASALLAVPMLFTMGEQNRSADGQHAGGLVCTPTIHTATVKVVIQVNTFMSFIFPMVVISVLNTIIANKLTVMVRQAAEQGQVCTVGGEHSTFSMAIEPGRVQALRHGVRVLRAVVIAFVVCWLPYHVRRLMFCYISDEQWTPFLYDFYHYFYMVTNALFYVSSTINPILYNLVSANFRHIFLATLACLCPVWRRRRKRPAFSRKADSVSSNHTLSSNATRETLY

Beta Lactamase = Beta Lactamase (Pseudomonas aeruginosa, UniProt Q932Y6); assay: BLA reporter interference, concentration series – BLA reporter cells, FRET fluorescence, artefact control for NOD2-RIPK2 interaction inhibitor project, dose response (AID 651552); assay type: functional, cell-based
Chain of Beta Lactamase (Q932Y6 whole entry): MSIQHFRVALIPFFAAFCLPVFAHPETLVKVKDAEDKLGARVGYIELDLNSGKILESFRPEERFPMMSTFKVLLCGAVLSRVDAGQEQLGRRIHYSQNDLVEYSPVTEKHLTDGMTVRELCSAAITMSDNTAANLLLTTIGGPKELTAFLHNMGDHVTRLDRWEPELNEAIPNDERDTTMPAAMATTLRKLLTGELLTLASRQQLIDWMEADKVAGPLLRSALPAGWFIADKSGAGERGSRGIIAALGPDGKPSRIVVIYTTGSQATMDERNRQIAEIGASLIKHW

[9] = target: Glucose-6-phosphate 1-dehydrogenase (Homo sapiens, UniProt P11413); assay: inhibition of Homo sapiens G6PD, dose series – biochemical, fluorescence, selectivity assay for P. falciparum G6PD inhibitor project, dose response (AID 504792); assay type: functional
Chain of Glucose-6-phosphate 1-dehydrogenase (P11413 whole entry): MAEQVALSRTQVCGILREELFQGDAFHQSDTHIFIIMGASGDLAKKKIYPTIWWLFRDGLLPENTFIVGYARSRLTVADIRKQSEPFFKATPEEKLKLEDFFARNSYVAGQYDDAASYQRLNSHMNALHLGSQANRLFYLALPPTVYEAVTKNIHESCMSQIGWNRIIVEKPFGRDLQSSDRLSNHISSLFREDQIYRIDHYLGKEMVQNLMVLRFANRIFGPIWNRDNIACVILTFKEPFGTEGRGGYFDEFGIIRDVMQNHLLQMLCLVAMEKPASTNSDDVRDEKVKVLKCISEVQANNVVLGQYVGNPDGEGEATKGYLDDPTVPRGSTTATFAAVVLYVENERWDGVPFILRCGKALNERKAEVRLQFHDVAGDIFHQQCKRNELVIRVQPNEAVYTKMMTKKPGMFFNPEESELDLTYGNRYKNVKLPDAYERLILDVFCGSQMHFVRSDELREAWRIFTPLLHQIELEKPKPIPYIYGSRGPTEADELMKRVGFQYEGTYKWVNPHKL

[10] = target: DNA (cytosine-5)-methyltransferase 1 (Homo sapiens, UniProt P26358); assay: inhibition of DNA methylation by DNMT1 – biochemical, fluorescent molecular beacon, confirmation (AID 602386); assay type: functional
Chain of DNA (cytosine-5)-methyltransferase 1 (P26358 whole entry): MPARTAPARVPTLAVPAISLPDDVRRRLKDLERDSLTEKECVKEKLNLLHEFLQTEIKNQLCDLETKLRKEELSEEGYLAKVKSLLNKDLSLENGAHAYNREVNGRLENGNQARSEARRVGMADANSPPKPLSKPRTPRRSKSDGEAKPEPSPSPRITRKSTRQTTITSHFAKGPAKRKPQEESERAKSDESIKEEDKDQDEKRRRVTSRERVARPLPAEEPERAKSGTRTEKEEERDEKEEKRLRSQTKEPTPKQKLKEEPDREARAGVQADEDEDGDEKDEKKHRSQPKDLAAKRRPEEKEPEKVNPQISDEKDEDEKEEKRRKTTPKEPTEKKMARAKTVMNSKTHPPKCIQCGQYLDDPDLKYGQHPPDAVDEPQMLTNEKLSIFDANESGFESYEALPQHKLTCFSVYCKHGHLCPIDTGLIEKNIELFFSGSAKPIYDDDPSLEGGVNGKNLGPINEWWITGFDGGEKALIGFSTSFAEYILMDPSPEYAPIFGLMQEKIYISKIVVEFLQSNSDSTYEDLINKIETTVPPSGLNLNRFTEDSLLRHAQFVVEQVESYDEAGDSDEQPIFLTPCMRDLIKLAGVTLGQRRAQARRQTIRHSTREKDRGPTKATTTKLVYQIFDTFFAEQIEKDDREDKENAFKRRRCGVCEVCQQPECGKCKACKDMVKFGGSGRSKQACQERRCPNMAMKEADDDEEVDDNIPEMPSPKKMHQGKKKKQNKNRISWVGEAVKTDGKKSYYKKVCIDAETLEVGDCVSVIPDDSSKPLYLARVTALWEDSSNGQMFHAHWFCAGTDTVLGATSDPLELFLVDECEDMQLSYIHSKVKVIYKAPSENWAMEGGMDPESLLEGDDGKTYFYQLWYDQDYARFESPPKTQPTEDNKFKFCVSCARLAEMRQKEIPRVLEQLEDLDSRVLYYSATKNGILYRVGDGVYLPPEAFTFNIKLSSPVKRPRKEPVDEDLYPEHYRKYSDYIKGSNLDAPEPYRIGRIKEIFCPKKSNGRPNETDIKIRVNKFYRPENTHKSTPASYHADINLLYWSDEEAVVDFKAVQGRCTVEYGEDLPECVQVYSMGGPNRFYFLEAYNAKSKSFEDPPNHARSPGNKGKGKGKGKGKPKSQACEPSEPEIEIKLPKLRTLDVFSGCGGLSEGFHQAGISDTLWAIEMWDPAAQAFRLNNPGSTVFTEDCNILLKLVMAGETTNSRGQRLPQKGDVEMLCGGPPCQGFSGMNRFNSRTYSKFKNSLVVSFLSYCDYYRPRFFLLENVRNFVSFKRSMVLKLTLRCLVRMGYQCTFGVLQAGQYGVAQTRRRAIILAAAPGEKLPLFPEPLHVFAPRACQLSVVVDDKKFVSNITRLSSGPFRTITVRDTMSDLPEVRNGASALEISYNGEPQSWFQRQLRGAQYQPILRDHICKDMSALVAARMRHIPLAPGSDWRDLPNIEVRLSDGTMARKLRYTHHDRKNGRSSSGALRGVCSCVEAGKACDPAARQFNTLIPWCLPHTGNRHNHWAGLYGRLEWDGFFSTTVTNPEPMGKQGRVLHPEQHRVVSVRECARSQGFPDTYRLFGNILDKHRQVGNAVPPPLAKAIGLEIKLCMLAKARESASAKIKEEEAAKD

[11] = Luminescence Cell-Based Dose Confirmation HTS to Identify Activators of 5'UTR Stem-Loop Driven Alpha-Synuclein mRNA Translation in H4 Neuroglioblastoma Cells. [Related pubchem assays: 1829 (Project Summary), 1814 (Primary HTS)]; assay type: functional
[12] = Luminescence Cell-Based Dose Response HTS to Identify Activators of Luciferase Translation or Activity in H4 […] Cells. [Related pubchem assays: 1829 (Project Summary), 1814 (Primary HTS)]; assay type: functional
H4 = assay: Luminescence Cell-Based Dose Response HTS to Identify Activators of 5'UTR Stem-Loop Driven Prion Protein mRNA Translation in H4 Neuroglioblastoma Cells. [Related pubchem assays: 1829 (Project Summary), 1814 (Primary HTS)]; assay type: functional; conditions: Homo sapiens
[13] = target: Matrix metalloproteinase-14 (Homo sapiens, UniProt P50281); assay: Dose Response confirmation of uHTS hits for a small molecule inhibitors of MT1-MMP activation in a fluorescence assay set 2.; assay type: functional
[14] = target: T1, High affinity choline transporter 1 (Homo sapiens, UniProt Q9GZV3); assay: human choline transporter blockers, potency – cell-based, 10-point CRC, membrane potential dye, dose response (AID 588401); assay type: functional;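 also: membrane potential dye fluorescence of choline-evoked depolarization via CHT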
T1 sequence (Q9GZV3 whole entry): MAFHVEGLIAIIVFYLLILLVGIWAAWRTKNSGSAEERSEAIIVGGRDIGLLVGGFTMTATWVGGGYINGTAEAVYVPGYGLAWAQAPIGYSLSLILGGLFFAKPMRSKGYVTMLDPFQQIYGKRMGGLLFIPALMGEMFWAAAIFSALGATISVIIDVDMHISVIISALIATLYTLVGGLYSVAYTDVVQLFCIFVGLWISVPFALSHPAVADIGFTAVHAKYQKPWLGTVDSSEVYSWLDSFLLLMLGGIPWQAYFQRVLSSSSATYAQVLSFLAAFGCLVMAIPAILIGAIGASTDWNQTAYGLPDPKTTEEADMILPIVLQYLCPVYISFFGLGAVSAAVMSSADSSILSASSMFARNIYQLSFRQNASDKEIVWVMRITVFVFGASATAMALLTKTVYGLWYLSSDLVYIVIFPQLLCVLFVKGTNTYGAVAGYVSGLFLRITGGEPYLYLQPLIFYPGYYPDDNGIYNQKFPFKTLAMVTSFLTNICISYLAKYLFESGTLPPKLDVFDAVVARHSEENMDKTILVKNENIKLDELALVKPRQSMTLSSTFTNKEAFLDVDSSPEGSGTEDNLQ

[15] = target: T1, High affinity choline transporter 1; assay: human choline transporter blockers, potency – cell-based, 5-point CRC, membrane potential dye, dose response (AID 504840); assay type: functional
[16] = viability loss in HEK293T cells – cell-based, cherry-picks, cytotoxicity control for HIV Vif inhibitor project, dose response (AID 652208); assay type: functional

Question: Which results are given for O=C(c1ccc(Br)cc1)C(CN1CCOCC1)c1ccccc1 (stereo unspecified)?
Answer: IC50 [1]: > 64.6 µM (inactive); AC50 [2]: 2.85 µM (active); AC50 [3]: 21.6 µM (active); AC50 [4]: 10.6 µM (active); CC50 (Vero): > 25 µM (active); IC50 (Melanocortin receptor 4): > 64.6 µM (inactive); AC50 [5]: 9.4 µM (active); CC50 [6]: > 40 µM (active); IC50 [7]: 7.78 µM (active); EC50 [8]: 33 µM (inactive)

Question: What does the source list for Clc1nssc1=Nc1nncs1?
Answer: IC50 (Beta Lactamase): 49.8 µM (inactive); IC50 [9]: 42.3 µM (inactive); IC50 [7]: 6.62 µM (active)

Question: For CCCCCCCCc1nnc(NC(=O)c2ccco2)s1, which IC50 [10] is on record?
Answer: 42.4 µM (active)

Question: What does the source list for CC[n+]1c(/C=C/Nc2ccccc2)sc2ccccc21?
Answer: AC50 [3]: > 70 µM (inactive); AC50 [4]: 5.83 µM (active); EC50 [11]: > 120 µM (not active); EC50 [12]: > 120 µM (not active); AC50 [5]: 2.06 µM (active); EC50 (H4): > 120 µM (not active); IC50 [13]: 23.3 µM (inactive)

Question: With Cc1ccc(NC(=O)CN2C(=O)NC3(CCc4ccccc43)C2=O)cc1Cl (stereo unspecified) as the molecule, how does the IC50 [14] read?
Answer: 11.2 µM (active)

Question: What about the IC50 [15] of the same molecule?
Answer: 9.3 µM (active)

Question: With CC(=O)Nc1ccc(NC(=O)COc2ccccc2C(=O)Nc2cccc(Cl)c2Cl)cc1 as the molecule, how does the AC50 [16] read?
Answer: 8.25 µM (active)

Question: Which results are given for COc1cc(NS(=O)(=O)c2ccc(NC(=O)c3ccc(Cl)cc3Cl)cc2)ncn1?
Answer: IC50 [14]: 9.46 µM (active); IC50 [15]: 4.47 µM (active)
